Measurements taken from BindingDB's records for doi:10.1021/jm201510p (Abo Akademi University, 2012).

Target: T1, Poly [ADP-ribose] polymerase tankyrase-2 (Homo sapiens, UniProt Q9H2K2)
T1 sequence (Q9H2K2 whole entry): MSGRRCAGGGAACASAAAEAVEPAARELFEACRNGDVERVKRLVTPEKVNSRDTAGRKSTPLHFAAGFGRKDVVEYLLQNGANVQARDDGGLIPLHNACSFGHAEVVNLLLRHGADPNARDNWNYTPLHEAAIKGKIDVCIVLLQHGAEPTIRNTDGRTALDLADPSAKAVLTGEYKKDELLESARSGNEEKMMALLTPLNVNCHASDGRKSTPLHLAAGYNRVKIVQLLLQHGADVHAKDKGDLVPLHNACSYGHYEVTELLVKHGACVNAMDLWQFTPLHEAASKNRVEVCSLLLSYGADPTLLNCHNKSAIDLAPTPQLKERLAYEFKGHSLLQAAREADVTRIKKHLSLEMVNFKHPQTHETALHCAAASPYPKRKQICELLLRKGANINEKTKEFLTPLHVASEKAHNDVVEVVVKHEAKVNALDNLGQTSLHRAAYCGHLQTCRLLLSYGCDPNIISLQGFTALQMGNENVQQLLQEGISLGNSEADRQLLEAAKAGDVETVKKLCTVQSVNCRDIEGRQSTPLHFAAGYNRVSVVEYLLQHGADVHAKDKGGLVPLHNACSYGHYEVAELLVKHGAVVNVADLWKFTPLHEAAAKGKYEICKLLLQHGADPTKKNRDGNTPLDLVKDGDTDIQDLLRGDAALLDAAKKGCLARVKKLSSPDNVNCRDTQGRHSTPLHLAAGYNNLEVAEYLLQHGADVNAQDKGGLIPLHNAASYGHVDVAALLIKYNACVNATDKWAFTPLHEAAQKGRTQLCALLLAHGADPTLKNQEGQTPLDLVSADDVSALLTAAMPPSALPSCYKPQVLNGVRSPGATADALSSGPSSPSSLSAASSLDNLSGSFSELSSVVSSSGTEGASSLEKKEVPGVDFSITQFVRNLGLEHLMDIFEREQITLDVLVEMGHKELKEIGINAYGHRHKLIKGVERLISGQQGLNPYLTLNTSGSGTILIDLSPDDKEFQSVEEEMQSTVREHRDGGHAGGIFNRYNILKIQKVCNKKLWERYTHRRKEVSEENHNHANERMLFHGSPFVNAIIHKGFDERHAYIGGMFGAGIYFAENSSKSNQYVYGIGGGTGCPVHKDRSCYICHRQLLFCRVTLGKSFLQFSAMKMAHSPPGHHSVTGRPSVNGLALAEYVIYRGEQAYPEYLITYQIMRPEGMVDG
Test: Activity of N-terminus hexaHis-tagged human TNSK2 expressed in Escherichia coli BL21 (DE3) cells using biotinylated NAD+ as substrate after 90 mins by Western blot analysis

EC50	Compound
> 25 µM	O=C(NC1CCCCC1)c1ccc(-n2c(O)c3c(c2O)[C@H]2C=C[C@@H]3C2)cc1 [N-Cyclohexyl-4-((1R,2S,6R,7S)-3,5-dioxo-4-aza-tricyclo[5.2.1.0*2,6*]dec-8-en-4-yl)-benzamide]
> 25 µM	O=C(Nc1ccccc1)c1ccc(-n2c(O)c3c(c2O)[C@H]2C=C[C@@H]3C2)cc1
